We go through 46 molecules from patent US20120190687A1, “Pyrazinylpyrazoles” (Bayer CropScience Ag, priority 2009, published 2012).

One data set concerns Phaedon cochleariae. As to the kind of experiment: Phaedon test (PHAECO spray treatment). It is filed as in vivo. The conditions noted are these: 500 g/ha, Chinese cabbage discs, after 7 days. The method, then: Phaedon Test ([…] Spray Treatment) Solvent: 78.0 parts by weight of acetone • • 1.5 parts by weight of dimethylformamide Emulsifier: 0.5 part by weight of alkylaryl polyglycol ether To prepare an appropriate active ingredient preparation, 1 part by weight of active ingredient is mixed with the stated amounts of solvent and emulsifier, and the concentrate is diluted with emulsifier-containing water to the desired concentration. Discs of Chinese cabbage (Brassica pekinensis) are sprayed with an active ingredient preparation of the desired concentration and, after drying, populated with larvae of the mustard beetle (Phaedon cochleariae). After 7 days, the efficacy in % is determined. 100% means that all beetle larvae have been killed; 0% means that none of the beetle larvae have been killed.

The next data set deals with Spodoptera frugiperda. The experiment in a line: Spodoptera frugiperda test (SPODFR spray treatment). It is filed as in vivo. To be noted: 500 g/ha, maize leaf discs, after 7 days. As for the experimental part:
Spodoptera frugiperda Test (SPODFR Spray Treatment) Solvent: 78.0 parts by weight of acetone • • 1.5 parts by weight of dimethylformamide Emulsifier: 0.5 part by weight of alkylaryl polyglycol ether To prepare an appropriate active ingredient preparation, 1 part by weight of active ingredient is mixed with the stated amounts of solvent and emulsifier, and the concentrate is diluted with emulsifier-containing water to the desired concentration. Discs of maize leaves (Zea mays) are sprayed with an active ingredient preparation of the desired concentration and, after drying, populated with caterpillars of the armyworm (Spodoptera frugiperda). After 7 days, the efficacy in % is determined. 100% means that all caterpillars have been killed; 0% means that none of the caterpillars have been killed.

Data set [1] is described as follows: logP by reversed-phase HPLC (EEC Directive 79/831 Annex V.A8). The format is physicochemical. From the text:
[table] The calibration is effected with unbranched alkan-2-ones (having 3 to 16 carbon atoms) with known log P values (log P values determined on the basis of the retention times by linear interpolation between two successive alkanones).

A further data set deals with Tetranychus urticae. As to the kind of experiment: Tetranychus test, OP-resistant (TETRUR spray treatment). The format is in vivo. To be noted: 500 g/ha, bean leaf discs, after 6 days. As for the experimental part: Tetranychus Test, OP-resistant (TETRUR Spray Treatment)
Solvent: 78.0 parts by weight of acetone • • 1.5 parts by weight of dimethylformamide
Emulsifier: 0.5 part by weight of alkylaryl polyglycol ether
To prepare an appropriate active ingredient preparation, 1 part by weight of active ingredient is mixed with the stated amounts of solvent and emulsifier, and the concentrate is diluted with emulsifier-containing water to the desired concentration. Discs of bean leaves (Phaseolus vulgaris) infested by all stages of the red spider mite (Tetranychus urticae) are sprayed with an active ingredient preparation of the desired concentration. After 6 days, the efficacy in % is determined. 100% means that all spider mites have been killed; 0% means that none of the spider mites have been killed.

Setting [2] is: * LC-MS, acidic range, pH 2.7, 0.1% aqueous formic acid / acetonitrile.
Setting [3] is: ** acidic range, pH 2.3, 0.1% aqueous phosphoric acid / acetonitrile.

Turning to `CCOc1nccnc1-n1nc(C(F)(F)F)c(-c2cc(Cl)cc(C(F)(F)F)c2)c1N(Cc1ccc(OC)cc1)Cc1ccc(OC)cc1` [Ex. 43], the efficacy with Phaedon cochleariae and with Spodoptera frugiperda was 100% in each case. For the same molecule, the “log P” value in data set [1] (setting [2]) is on record as 6.57*. As for `COc1nccnc1-n1nc(C(F)(F)F)c(-c2cc(SCC(F)(F)F)c(Cl)cc2Cl)c1N` [Ex. 179], in data set [1] (setting [2]), the “log P” value is recorded as 4.14*. Turning to `Nc1c(-c2cc(Cl)cc(Cl)c2)c(C(F)(F)F)nn1-c1nccnc1Cl` [Ex. 56], in data set [1] (setting [2]), the “log P” value is 4.16*. For `COc1nccnc1-n1nc(C(F)(F)F)c(-c2cc(C(F)(F)F)cc(Cl)n2)c1N` [Ex. 55], in data set [1] (setting [2]), the “log P” value is given as 4.54*. Regarding `Nc1c(-c2cc(Cl)cc(C(F)(F)F)c2)c(C(F)(F)F)nn1-c1nccnc1C(F)(F)F` [Ex. 130], the efficacy in the data set on Phaedon cochleariae and in the data set with Spodoptera frugiperda was 100% throughout. In data set [1] (setting [2]), the “log P” value is recorded as 4.57*. For `Cc1nccnc1-n1nc(C(F)(F)F)c(-c2cc(Cl)cc(C(F)(F)F)c2)c1N` [Ex. 23], the efficacy in the data set on Phaedon cochleariae and in the data set with Tetranychus urticae was 100% each time. For the same molecule, the “log P” value in data set [1] (setting [2]) was 4.32*. On to `CCOc1nccnc1-n1nc(C(F)(F)F)c(-c2cc(Cl)cc(C(F)(F)F)c2)c1NCc1ccc(Cl)cc1` [Ex. 37], for which the “log P” value in data set [1] (setting [2]) is reported as 5.84*. Consider `CC(C)Oc1nccnc1-n1nc(C(F)(F)F)c(-c2cc(Cl)cc(C(F)(F)F)c2)c1N` [Ex. 13], for which the efficacy in the data set with Phaedon cochleariae turned out to be 83%. For the same molecule, the “log P” value in data set [1] (setting [2]) is 4.84*. Consider `COc1cc(-c2c(C(F)(F)F)nn(-c3nccnc3OC)c2N)ccc1OCC(F)(F)F` [Ex. 125], for which the efficacy in the data set on Phaedon cochleariae worked out at 100%; in the data set with Tetranychus urticae, 90%. For the same molecule, the “log P” value in data set [1] (setting [2]) was 3.07*.

Turning to `COc1nccnc1-n1nc(C(F)(F)F)c(-c2cc(Cl)c(Cl)c(SCC(F)(F)F)c2)c1N` [Ex. 180], in data set [1] (setting [2]), the “log P” value is listed as 4.43*. As for `C[S+]([O-])c1nccnc1-n1nc(C(F)(F)F)c(-c2cc(Cl)cc(C(F)(F)F)c2)c1N` (centres unmarked) [Ex. 29], the “log P” value in data set [1] (setting [2]) is reported as 3.29*. The same measure, in the same setting: the same measure for `CN(C)c1nccnc1-n1nc(C(F)(F)F)c(-c2cc(Cl)cc(C(F)(F)F)c2)c1N` [Ex. 25]: 4.28*. In the case of `Nc1c(-c2cc(Cl)cc(C(F)(F)F)c2)c(C(F)(F)F)nn1-c1nccnc1Br` [Ex. 129], the “log P” value in data set [1] (setting [2]) is 4.27*.

`N#Cc1nccnc1-n1nc(C(F)(F)F)c(-c2cc(Cl)cc(C(F)(F)F)c2)c1N` [Ex. 27] gave an efficacy in the data set on Phaedon cochleariae of 100%. The “log P” value in data set [1] (setting [2]) is given as 3.93*. With `CCOc1cc(-c2c(C(F)(F)F)nn(-c3nccnc3OC)c2N)ccc1OCC(F)(F)F` [Ex. 127], the efficacy with Phaedon cochleariae is 100%; in the data set with Tetranychus urticae it was 90%. The “log P” value in data set [1] (setting [2]) is recorded as 3.68*. For the molecule `Nc1c(-c2cc(Cl)cc(C(F)(F)F)c2)c(C(F)(F)F)nn1-c1nccnc1Cl` [Ex. 16], the “log P” value in data set [1] (setting [2]) is listed as 4.28*. For the molecule `COc1nccnc1-n1nc(C(F)(F)F)c(-c2ccc(Cl)c(SC)c2Cl)c1N` [Ex. 165], the “log P” value in data set [1] (setting [2]) was 4.14*. For `CCOc1nccnc1-n1nc(C(F)(F)F)c(-c2cc(Cl)cc(C(F)(F)F)c2)c1N(Cc1ccccc1)Cc1ccccc1` [Ex. 34], the “log P” value in data set [1] (setting [2]) is on record as 7*. Same read-out and setting: the same measure for `COc1nccnc1-n1nc(C(F)(F)F)c(-c2cc(Cl)cc(C(F)(F)F)c2)c1N(Cc1ccccc1)Cc1ccccc1` [Ex. 32]: 6.67*. The same measure, in the same setting: in the case of `COc1nccnc1-n1nc(C(F)(F)F)c(-c2cc(Cl)c(Cl)c([S+]([O-])CC(F)(F)F)c2)c1N` (centres unmarked) [Ex. 182] it was 3.69*; in that of `COc1cc(-c2c(C(F)(F)F)nn(-c3nccnc3OC)c2N)cc(C(F)(F)F)c1OC(C)C` [Ex. 126], 4.28*. The molecule `C=C(C)CNc1c(-c2cc(Cl)cc(C(F)(F)F)c2)c(C(F)(F)F)nn1-c1nccnc1OC` [Ex. 96] registered an efficacy in the data set with Tetranychus urticae of 100%. As for `COc1cc(-c2c(C(F)(F)F)nn(-c3nccnc3OC)c2N)cc(Cl)c1OCC(F)(F)F` [Ex. 134], the efficacy in the data set with Phaedon cochleariae and in the data set on Spodoptera frugiperda was 100% each time. Moreover, the “log P” value in data set [1] (setting [2]) is 3.88*.

Take `Nc1c(-c2ccc(Cl)cc2)c(C(F)(F)F)nn1-c1nccnc1Cl` [Ex. 7]: the “log P” value in data set [1] (setting [2]) is recorded as 3.59*. As for `COc1nccnc1-n1nc(C(F)(F)F)c(-c2cc(F)c(Cl)cc2Cl)c1N` [Ex. 166], the efficacy came to 100% in the data set with Phaedon cochleariae and 90% with Tetranychus urticae. For the same molecule, the “log P” value in data set [1] (setting [2]) is 3.66*. Molecule `CCOc1nccnc1-n1nc(C(F)(F)F)c(-c2cc(Cl)cc(C(F)(F)F)c2)c1NCc1ccccc1` [Ex. 35] showed an efficacy in the data set on Tetranychus urticae of 90%. The “log P” value in data set [1] (setting [2]) was 5.62*. As to `COc1ccc(CN(Cc2ccc(OC)cc2)c2c(-c3cc(Cl)cc(C(F)(F)F)c3)c(C(F)(F)F)nn2-c2nccnc2OC)cc1` [Ex. 42], the “log P” value in data set [1] (setting [2]) is recorded as 6.25*. In the case of `CCOc1nccnc1-n1nc(C(F)(F)F)c(-c2cc(Cl)cc(C(F)(F)F)c2)c1N(Cc1ccc(Cl)cc1)Cc1ccc(Cl)cc1` [Ex. 36], the “log P” value in data set [1] (setting [3]) is reported as 7.36**. Regarding `COc1nccnc1-n1nc(C(F)(F)F)c(-c2cc(Cl)cc(C(F)(F)F)c2)c1N(Cc1ccc(Cl)cc1)Cc1ccc(Cl)cc1` [Ex. 38], the “log P” value in data set [1] (setting [2]) is 7.11*. The same measure, in the same setting: in the case of `Nc1c(-c2cc(Cl)cc(C(F)(F)F)c2)c(C(F)(F)F)nn1-c1nccnc1-n1cccn1` [Ex. 31] it was 3.94*. With `Nc1c(-c2ccc(Cl)c(Cl)c2)c(C(F)(F)F)nn1-c1nccnc1Cl` [Ex. 1], the results for the “log P” value in data set [1] (setting [2]) and in data set [1] (setting [3]) were 4.02* and 3.99**;, respectively. Turning to `C=C(C)CN(CC(=C)C)c1c(-c2cc(Cl)cc(C(F)(F)F)c2)c(C(F)(F)F)nn1-c1nccnc1OC` [compound 104], the “log P” value in data set [1] (setting [2]) was 5.22*. Consider `COc1nccnc1-n1nc(C(F)(F)F)c(-c2ccc3c(c2)CCC(C)(C)O3)c1N` [Ex. 145], for which the efficacy with Phaedon cochleariae was 100%. Further, the “log P” value in data set [1] (setting [2]) is given as 3.68*. As for `Nc1c(-c2cc(Cl)cc(C(F)(F)F)c2)c(C(F)(F)F)nn1-c1nccnc1-n1ccnc1` [Ex. 44], the efficacy with Phaedon cochleariae and with Spodoptera frugiperda was 100% throughout. Further, in data set [1] (setting [2]), the “log P” value was 2.76*. `COc1nccnc1-n1nc(C(F)(F)F)c(-c2cc(Cl)cc(C(F)(F)F)c2)c1N(C)C` [compound 107, 1-(3-methoxypyrazin-2-yl)-4-[3-chloro-5-(trifluoromethyl)phenyl]-3-(trifluoromethyl)-1H-pyrazole-5-dimethylamine] had an efficacy in the data set with Phaedon cochleariae of 83%. Moreover, the chromatographic logP in data set [1] (reversed-phase HPLC column, * LC-MS, acidic range, pH 2.7, 0.1% aqueous formic acid / acetonitrile, read-out: log P) turned out to be 5.11. Turning to `COc1nccnc1-n1nc(C(F)(F)F)c(-c2cc(Cl)c(Cl)c(C(F)(F)F)c2)c1N` [Ex. 86], the efficacy in the data set with Phaedon cochleariae and in the data set on Spodoptera frugiperda was 100% in each case. Also, the “log P” value in data set [1] (setting [3]) is 4.47**. Take `CCOc1cc(-c2c(C(F)(F)F)nn(-c3nccnc3OC)c2N)cc(Br)c1OCC(F)(F)F` [Ex. 140]: the efficacy in the data set on Phaedon cochleariae and with Spodoptera frugiperda was 100% throughout. Further, in data set [1] (setting [2]), the “log P” value is given as 4.3*. For the molecule `C#CCN(CC#C)c1c(-c2cc(Cl)cc(C(F)(F)F)c2)c(C(F)(F)F)nn1-c1nccnc1OC` [Ex. 105], the “log P” value in data set [1] (setting [2]) was 4.91*. For `CCOc1nccnc1-n1nc(C(F)(F)F)c(-c2cc(Cl)cc(C(F)(F)F)c2)c1NCc1ccc(OC)cc1` [Ex. 40], the “log P” value in data set [1] (setting [2]) is listed as 5.47*. The same measure, in the same setting: in the case of `COc1nccnc1-n1nc(C(F)(F)F)c(-c2cc(Cl)cc(C(F)(F)F)c2)c1NCc1ccc(Cl)cc1` [Ex. 39] it was 5.51*. Consider `COc1nccnc1-n1nc(C(F)(F)F)c(-c2ccc(N(C)C)c(Cl)c2)c1N` [Ex. 122], for which the efficacy in the data set on Phaedon cochleariae and in the data set with Spodoptera frugiperda was 100% throughout. Moreover, the “log P” value in data set [1] (setting [2]) was 3.19*. For `CS(=O)(=O)c1nccnc1-n1nc(C(F)(F)F)c(-c2cc(Cl)cc(C(F)(F)F)c2)c1N` [Ex. 30], the “log P” value in data set [1] (setting [2]) is 3.54*.

As to `Nc1c(-c2cc(Cl)cc(C(F)(F)F)c2)c(C(F)(F)F)nn1-c1nccnc1-n1cc(F)cn1` [Ex. 45], the “log P” value in data set [1] (setting [2]) is reported as 4.24*. Regarding `Cc1cnc(C)c(-n2nc(C(F)(F)F)c(-c3cc(Cl)cc(C(F)(F)F)c3)c2N)n1` [Ex. 24], the “log P” value in data set [1] (setting [2]) is reported as 4.56*.

For the molecule `CNc1c(-c2cc(Cl)cc(C(F)(F)F)c2)c(C(F)(F)F)nn1-c1nccnc1OC` [Ex. 106], in data set [1] (setting [2]), the “log P” value is recorded as 4.51*.

For the molecule `Nc1c(-c2cc(Cl)cc(C(F)(F)F)c2)c(C(F)(F)F)nn1-c1cncc(Cl)n1` [Ex. 19], in data set [1] (setting [2]), the “log P” value is listed as 5.26*.
